The results in this text go back to patent publication US20120178682A1, “GB1 Peptidic Compounds and Methods for Making and Using the Same” (priority 2010, published 2012).

Bridge positions count the residues as written; N and C are the ends. Square brackets hold non-standard residues; d marks the D form. Ends that are not written are not given here.

The target of data set [1] is D-VEGF. Kind of data set: SPR affinity measurements of GB1 peptidic compounds on immobilized D-VEGF. It counts as binding. As to conditions: target D-VEGF. As to the method:
VEGF binding compounds were expressed. Binding affinities were measured using the […] SPR system. SPR analysis was performed on a ProteOn XPR36 Protein Interaction Array System (BioRad). Chemically synthesized L-VEGF, D-VEGF and VEGF165 (Peprotech) were immobilized in 50 mM Sodium Acetate (pH 5.5) to a non-dilute EDAC/sulfo-NHS activated GLC surface on separate channels using a flow rate of […] for 5 minutes in the vertical direction. Immobilization levels were monitored to ensure immobilization of approximately 500 response units of each protein. The domains were then stabilized with PBS for 30 seconds and 0.85% H3PO4 for 18 seconds each at […]. GB1 variants were diluted in PBS plus 0.05% Tween 20 at a starting concentration of 200 nM. The binders were further diluted with PBST 2-fold in series to produce 5 concentrations of variants. A PBST blank was also included. GB1 variant injection parameters were: […], 60 seconds contact time, and 600 seconds dissociation time, in the horizontal direction. VEGF proteins were regenerated with an injection of 0.85% H3PO4 at a flow rate of […] followed by a PBST wash of 30 seconds at […] flow rate.

Data set [2] has as its system D-VEGF. In words: Competition assay (phage ELISA) with VEGF binding peptides v114 and v128a on D-VEGF. The note with it: 100 μM peptide; anti-M13-HRP detection. The procedure: (§1) To test whether the D-VEGF and L-VEGF binders have the potential to block VEGF-VEGFR1 interaction, a competition assay was performed using VEGF binding peptides v114 and v128a described by Fairbrother et al. (“Novel peptides selected to bind vascular endothelial growth factor target the receptor-binding site,” Biochemistry, 1998, 37, 17754-64). These peptides block the binding of VEGF to VEGFR1 and inhibit angiogenesis.
(§2) The peptides v114 ([…]-NH2; SEQ ID NO:296) and v128a ([…]-NH2; SEQ ID NO:297) were prepared in both D- and L-forms (CSBio, Inc.). The following protocol was used in the competitive binding assays: • 1. 5 wells of NUNC 96 well maxisorb plate were coated with D-VEGF (5 μg/ml in PBS) for testing clone E01. Similarly 5 wells were coated with L-VEGF (5 μg/ml in PBS) for each of E01 and B03. The plate was incubated at room temperature with gentle shaking for 2 hours; • 2. The plates were blocked with PBS+0.2% BSA (5 wells+1 extra well for control) for 1 hr at room temperature with gentle shaking; • 3. In the meantime, peptides were diluted in PBT buffer to a concentration of 150 μM; • 4. The plate was washed four times with PT buffer; • 5. 66 μl of each diluted peptide was added to 4 different wells coated with L or D-VEGF (depending on the clone tested). 66 μl of PBT was added to control wells (1 VEGF coated well+1 control well). Incubate for 30 min at room temperature with shaking; • 6. Add 33 μl of fresh phage supernatant from overnight culture to each of the six wells containing peptide solution. Incubate for 15 min at room temperature with shaking. • 7. Wash plate 6 times with PT buffer; • 8. Add 66 μl of anti-M13-HRP antibody (1:3000 dilution in PBT) to each well and incubate for 30 min at room temperature with shaking; • 9. Wash plate 4 times with PT buffer. Develop and read plates at 450 nm.
Phage binding to L and D-VEGF was tested in the presence and absence of 100 μM of each peptide (e.g., at 100 times affinity to saturate VEGF) using anti-M13-HRP to detect the bound phage.

Data set [3] is described as follows: Melting temperature (Tm) by circular dichroism (CD). It counts as physicochemical. The note with it: chemically synthesized compound; CD spectroscopy. The source says:
4.3 Determination of Melting Temperature (Tm) by Circular Dichroism (CD)

The test system of data set [4] is D-VEGF. In words: Phage ELISA after overnight incubation with GuHCl or urea. In kind it is binding. The note with it: various concentrations of urea or GuHCl; phage incubated overnight. As to the method:
During screening for specific binding to target, the presence of a chaotropic agent/denaturant can help select clones with improved stability and affinity. Phage were incubated overnight in the presence of various concentrations of GuHCl and urea and assayed using an ELISA method. […] Various concentrations GuHCl were added to selection wells prior to elution with 100 mM HCl. The selected clones were identified by competitive ELISA and analyzed for IC50 using similar protocols to those described above.

Another data set concerns the target T1, L-VEGF (Homo sapiens, UniProt P15692).
T1 construct: Synthetic L-VEGF-A (8-109) was folded under the following conditions; made in house; host or cells: total chemical synthesis (SPPS plus native chemical ligation), no expression host
T1 sequence (P15692 214-315): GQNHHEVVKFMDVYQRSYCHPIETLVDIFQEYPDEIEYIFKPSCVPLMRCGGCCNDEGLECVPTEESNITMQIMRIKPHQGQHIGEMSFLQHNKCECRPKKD
Kind of data set: Competition assay (phage ELISA) with VEGF binding peptides v114 and v128a on L-VEGF. As to conditions: 100 μM peptide; anti-M13-HRP detection. The procedure:
as §1
as §2, with “Incubate for 30 min at room temperature with shaking; • 6. Add 33 μl of fresh phage supernatant from overnight culture to each of the six wells containing peptide solution. Incubate for 15 min at room temperature with shaking. • 7. Wash plate 6 times with PT buffer; • 8. Add 66 μl of anti-M13-HRP antibody (1:3000 dilution in PBT) to each well and incubate for 30 min at room temperature with shaking; • 9. Wash plate 4 times with PT buffer.” left out, “nm. […]” for “nm.”

Where [5] appears, read: Table 2, GB1-E01 double mutants.

On D-VEGF [1] (Table 1), “E01: pre-affinity matured parent D-VEGF binding GB1 clone, SEQ ID NO:79 (TYKLILNGKTLKGETTTEAVDVYDAFDVFFVYAASNFSDFDDWTYDDATKTFTVTE) [Clone E01]” displayed a Kd of 13.4 nM and a Koff of 0.00347 s⁻¹. In the data set with D-VEGF [1] (Table 1, E01 point mutants expressed in E. coli), this substance registered a Kon of 260000 M⁻¹ s⁻¹. Also, at D-VEGF [1] (setting [5]), the Kd came to 3.46 nM, the Koff came out at 0.00117 s⁻¹ and the Kon is 338000 M⁻¹ s⁻¹. In the data set with D-VEGF [2], the “phage binding to D-VEGF in the presence of D-v114” value is “completely blocked”; the “phage binding to D-VEGF in the presence of D-v128a” value is reported as “partially blocked”; the “phage binding to D-VEGF in the presence of L-peptides (L-v114, L-v128a)” value is on record as “do not inhibit”.
In the case of “TYKLILNGKTLKGEFTLEAVDLFDAFDVFFVYAASNFSFFDDWTYDDATKTFTVTE ([dT][dY][dK][dL][dI][dL][dN]G[dK][dT][dL][dK]G[dE][dF][dT][dL][dE][dA][dV][dD][dL][dF][dD][dA][dF][dD][dV][dF][dF][dV][dY][dA][dA][dS][dN][dF][dS][dF][dF][dD][dD][dW][dT][dY][dD][dD][dA][dT][dK][dT][dF][dT][dV][dT][dE]; not fully specified) [RFX025]”, the “melting temperature (Tm)” value in data set [3] was determined as 66.6 °C. The “binding to D-VEGF in presence of denaturant” value in the data set with D-VEGF [4] is given as “bind specifically”.
As to “TYKLILNGKTLKGETTTEAVDFYYAFSVFFSYASSNSSDYVSWTYDDATKTFTVTE [Clone B03]”, the “phage binding to L-VEGF in the presence of D-peptides (D-v114, D-v128a)” value with L-VEGF is reported as “do not inhibit”.
Take “TYKMILNGKTLKSECTTEAVDLFDAFDVLFVCAASNFSFIDDWTYDDATKTFTVTE ([dT][dY][dK][dM][dI][dL][dN]G[dK][dT][dL][dK][dS][dE][dC][dT][dT][dE][dA][dV][dD][dL][dF][dD][dA][dF][dD][dV][dL][dF][dV][dC][dA][dA][dS][dN][dF][dS][dF][dI][dD][dD][dW][dT][dY][dD][dD][dA][dT][dK][dT][dF][dT][dV][dT][dE]; disulfide 15-32 (inferred); not fully specified) [RFX002]”: the “melting temperature (Tm)” value in data set [3] amounted to 66.9 °C. The “binding to D-VEGF in presence of denaturant” value with D-VEGF [4] is listed as “bind specifically”.
